One assay addresses T1, aldose reductase enzyme (Rattus norvegicus, UniProt P07943).
T1 construct: Using water-soluble extracts of rat lenses; from tissue; host or cells: rat lens, water-soluble extract
In words: inhibition of aldose reductase enzyme activity using water-soluble extracts of rat lenses (Kador and Sharpless procedure). It counts as biochemical. The conditions noted are these: for inhibition at 10 µM: 10^-5 M; for inhibition at 1 µM: 10^-6 M; for inhibition at 0.1 µM: 10^-7 M; for IC50: read-out: IC50 (concentration of inhibitor which gives 50% inhibition). On the procedure:
Using water-soluble extracts of rat lenses, the inhibitions of these compounds were determined.

Assay [1] relates to polyol increase in sciatic nerve of galactosemic rats. The assay is described as follows: reduction or inhibition of polyol (galactitol) increase in sciatic nerve of galactosemic rats. The assay is classed as in vivo, rat. Particulars: for Percent Inhibition (%) as compared to galactitol increase of the control animals: rats, 30% galactose diet, oral 10 mg/kg once a day for 8 days, sciatic nerve removed on 9th day. The method, then: Some spiro-3-heteroazolidine compounds according to the invention were tested to evaluate their ability on reduction or inhibition of polyol increase in sciatic nerve of galactosemic rats. To the rats, 30% galactose diet was fed and said compounds were orally administered at a dose of 10 mg/kg once a day for a period of 8 days. Control animals were received the galactose diet and were administered no such compound. One day after final administration (on 9th day from the first administration), sciatic nerves were removed for galactitol determination.

Where [2] appears, read: read-out: Percent Inhibition (%) of aldose reductase enzyme activity.

In general, inhibition refers to the drop in the measured response relative to a control, in per cent.

As for `O=C1NC(=O)C2(CC(C(=O)O)Oc3ccc(F)cc32)N1` (stereo not drawn) [Example 1, 6-Fluoro-2,3-dihydro-2',5'-dioxo-spiro[4H-1-benzopyran-4,4'-imidazolidine]-2-carboxylic acid], on aldose reductase enzyme (setting [2]), the inhibition at 10 µM came to 77%, the inhibition at 1 µM came out at 47% and the inhibition at 0.1 µM was determined as 9%. Besides, on aldose reductase enzyme, the IC50 turned out to be 6 µM. Moreover, the “ability to reduce or inhibit polyol increase in sciatic nerve of galactosemic rats, potency of diastereoisomers” value in assay [1] (major versus minor diastereoisomer of Example 1) was “greater than that of the minor diastereoisomer”. In addition, the “Percent Inhibition (%) as compared to galactitol increase of the control animals” value in assay [1] is given as 36%.
With `NC(=O)C1CC2(NC(=O)NC2=O)c2cc(F)ccc2O1` (stereo not drawn) [Example 2, 6-Fluoro-2,3-dihydro-2',5'-dioxo-spiro[4H-1-benzopyran-4,4'-imidazolidine]-2-carboxamide], at aldose reductase enzyme (setting [2]), the inhibition at 10 µM is 93%, the inhibition at 1 µM came out at 85% and the inhibition at 0.1 µM came to 15%. The IC50 at aldose reductase enzyme amounted to 0.4 µM. In addition, in assay [1], the “Percent Inhibition (%) as compared to galactitol increase of the control animals” value came to 85% and the “inhibition of polyol accumulation in sciatic nerve (in words)” value is “excellent”.
Consider `CNC(=O)C1CC2(NC(=O)NC2=O)c2cc(F)ccc2O1` (stereo not drawn) [Example 3, 6-Fluoro-2,3-dihydro-N-methyl-2',5'-dioxo-spiro[4H-1-benzopyran-4,4'-imidazolidine]-2-carboxamide], for which, on aldose reductase enzyme (setting [2]), the inhibition at 10 µM worked out at 71%, the inhibition at 1 µM is 78% and the inhibition at 0.1 µM turned out to be 26%. Moreover, the IC50 on aldose reductase enzyme is 0.5 µM. Further, the “Percent Inhibition (%) as compared to galactitol increase of the control animals” value in assay [1] was 31%.
Consider `CN(C)C(=O)C1CC2(NC(=O)NC2=O)c2cc(F)ccc2O1` (stereo not drawn) [Example 5, 6-Fluoro-2,3-dihydro-N,N-dimethyl-2',5'-dioxo-spiro[4H-1-benzopyran-4,4'-imidazolidine]-2-carboxamide], for which, on aldose reductase enzyme (setting [2]), the inhibition at 10 µM was 61%, the inhibition at 1 µM is 29% and the inhibition at 0.1 µM is 10%. In addition, the IC50 at aldose reductase enzyme worked out at 5 µM. Besides, in assay [1], the “Percent Inhibition (%) as compared to galactitol increase of the control animals” value was found to be 70% and the “inhibition of polyol accumulation in sciatic nerve (in words)” value is “excellent”.
For `COc1ccc(NC(=O)C2CC3(NC(=O)NC3=O)c3cc(F)ccc3O2)cc1` (stereo not drawn) [Example 8, 6-Fluoro-2,3-dihydro-N-(4-methoxyphenyl)-2',5'-dioxo-spiro[4H-1-benzopyran-4,4'-imidazolidine]-2-carboxamide], at aldose reductase enzyme (setting [2]), the inhibition at 10 µM stood at 81%, the inhibition at 1 µM stood at 81% and the inhibition at 0.1 µM stood at 65%. Further, the inhibition at 0.01 µM on aldose reductase enzyme (10^-8 M, read-out: Percent Inhibition (%) of aldose reductase enzyme activity) was determined as 14%. For the same molecule, the IC50 at aldose reductase enzyme was determined as 0.07 µM. In addition, in assay [1], the “Percent Inhibition (%) as compared to galactitol increase of the control animals” value stood at 26%.
Turning to `O=C1NC(=O)C2(CC(CO)Oc3ccc(F)cc32)N1` (stereo not drawn) [Example 12, 6-Fluoro-2,3-dihydro-2-hydroxymethyl-spiro[4H-1-benzopyran-4,4'-imidazolidine]-2',5'-dione], on aldose reductase enzyme (setting [2]), the inhibition at 10 µM came to 85%, the inhibition at 1 µM came out at 28% and the inhibition at 0.1 µM was determined as 13%. Also, the IC50 at aldose reductase enzyme came out at 4 µM. In assay [1], the “Percent Inhibition (%) as compared to galactitol increase of the control animals” value amounted to 40%.
Consider `O=C1NC(=O)C2(CC(CCl)Oc3ccc(F)cc32)N1` (stereo not drawn) [Example 13, 2-Chloromethyl-6-fluoro-2,3-dihydro-spiro[4H-1-benzopyran-4,4'-imidazolidine]-2',5'-dione], for which, at aldose reductase enzyme (setting [2]), the inhibition at 10 µM came out at 90%, the inhibition at 1 µM was found to be 51% and the inhibition at 0.1 µM was 3%. The IC50 on aldose reductase enzyme came out at 1 µM. Also, the “Percent Inhibition (%) as compared to galactitol increase of the control animals” value in assay [1] is listed as 88%.
